# Reference: publication PMC7743948, “D-LL-31 enhances biofilm-eradicating effect of currently used antibiotics for chronic rhinosinusitis and its immunomodulatory activity on human lung epithelial cells” (PLoS ONE, 2020)
# Several values for one entry are separate records, joined by “and”; a condition that tells them apart may be missing. Identical values can stand only once. Like-named read-outs stand apart in the source and are kept apart here. Ends that are not written are not given here.
# Legend:
# K. pneumoniae [1] = assay: Disc antimicrobial susceptibility test (BD BBL Sensi-Disc); assay type: cell-based, Klebsiella pneumoniae; set-up: key: Susceptible; Intermediate; Resistant; details: 24 h
# Protocol: (§1) Supplementary file pone.0243315.s001.docx: S1 Table Antimicrobial susceptibility test results of reference strain and representative bacteria used from CRS patients. Bacterial suspensions were incubated with antibiotics for 24 h and the results were interpreted according to BD BBL™ Sensi-Disc™ antimicrobial susceptibility test discs. (DOCX) Click here for additional data file.
# (§2) Antibiotics susceptibility testing was performed using BD BBL™ Sensi-Disc™ antimicrobial susceptibility test discs (Becton, Dickinson and Company, Franklin Lakes, NJ) and the results were interpreted according to the manufacturer's instructions.
# S. epidermidis [2] = assay: as above; assay type: cell-based, Staphylococcus epidermidis; set-up: key: Susceptible; Intermediate; Resistant; details: 24 h
# Protocol: as §1, §2
# K. pneumoniae biofilm [3] = assay: Checkerboard synergy of D-LL-31 with antibiotics on biofilm; assay type: cell-based, Klebsiella pneumoniae; details: Klebsiella pneumoniae, read-out: Antimicrobial agent in concentration of combination
# Protocol: (§3) Bacterial viability in each interaction was determined using the plate count technique. The fractional inhibitory concentration index (FICI) values were calculated and interpreted in terms of synergism/antagonism as previously described. Each experiment was performed independently three times in duplicate.
# S. epidermidis [4] = assay: Broth microdilution MIC/MBC of conventional antibiotics, planktonic form; assay type: cell-based, Staphylococcus epidermidis; details: MHB, 5 x 10^5 CFU/ml, 37 °C, 24 h, CLSI
# Protocol: (§4) MICs and MBCs of conventional antibiotics were determined using a broth microdilution technique. […] Only P. aeruginosa was additionally tested for susceptibility to TOB (Sigma-Aldrich) (0.03–52 μM or 0.01–25 μg/ml). Bacterial suspensions (5 x 10^5 CFU/ml) were added to the microtiter plates, which were then incubated at 37 °C for 24 h. Antibiotic-free culture was used as a control. […] The results were confirmed using a microplate reader at OD620 (Sunrise™, TECAN, Australia). The plate count technique was further used to determine the MBC values on Mueller Hinton agar (MHA) (Himedia®). Each experiment was performed independently three times in triplicate.
# S. epidermidis biofilm [5] = assay: Checkerboard synergy of D-LL-31 with antibiotics on biofilm; assay type: cell-based, Staphylococcus epidermidis; details: Staphylococcus epidermidis, read-out: Antimicrobial agent in concentration of combination
# Protocol: as §3
# [6] = system: S. epidermidis biofilm matrix; assay: Biofilm matrix reduction (AAA-model, CLSM, COMSTAT biomass); assay type: cell-based, Staphylococcus epidermidis; details: AMX alone at IC50 (33092 μM), 24 h, P < 0.05
# Protocol: Briefly, 1.5 ml of each overnight culture (10^8 CFU/ml) was added to a 24-well tissue culture plate (Nunclon™). The plate was covered with a sterile stainless-steel lid containing glass coverslips and aerobically incubated at 37°C for 24 h. […] All tested conditions were incubated at 37°C for 24 h. A well free of antimicrobial agent was used as a control. Following incubation, biofilms were fixed with 2.5% glutaraldehyde (Sigma-Aldrich) at 25°C for 3 h. The fixed bacterial biofilms on glass coverslips were stained with 50 μg/ml Alexa Fluor® 488 (Invitrogen, Carlsbad, CA) for 30 min. This stain reacts with exopolysaccharide matrixes of the biofilm. The glass coverslips were then mounted with 80% glycerol and the stained cells were photographed using a confocal laser-scanning microscope (CLSM) (TCS SP8-Leica Microsystems, Wetzlar, Germany). […] Each experiment was performed independently three times in duplicate.
# [7] = system: all strains (bacteria isolated from CRS patients); assay: Broth microdilution susceptibility, statement for all strains; assay type: cell-based; details: planktonic form
# Protocol: MICs and MBCs of conventional antibiotics were determined using a broth microdilution technique. […] Only P. aeruginosa was additionally tested for susceptibility to TOB (Sigma-Aldrich) (0.03–52 μM or 0.01–25 μg/ml). Bacterial suspensions (5 x 10^5 CFU/ml) were added to the microtiter plates, which were then incubated at 37 °C for 24 h. Antibiotic-free culture was used as a control. After incubation, MIC values were observed according to the guidelines of the Clinical & Laboratory Standards Institute (CLSI). The results were confirmed using a microplate reader at OD620 (Sunrise™, TECAN, Australia). The plate count technique was further used to determine the MBC values on Mueller Hinton agar (MHA) (Himedia®). Each experiment was performed independently three times in triplicate.
# K. pneumoniae [8] = assay: Broth microdilution MIC/MBC of conventional antibiotics, planktonic form; assay type: cell-based, Klebsiella pneumoniae; details: for MBC: broth microdilution then plate count on MHA; for MIC: broth microdilution, MHB, 5 x 10^5 CFU/ml, 37 °C, 24 h, CLSI
# Protocol: as §4
# S. epidermidis biofilm [9] = assay: microbe, parasite or virus in culture
# Protocol: (§5) The effects of both conventional antibiotics and AMPs against bacteria under biofilm-stimulating condition were determined using a transferable solid phase (TSP) pin lid, which resembles the ‘Calgary’ biofilm device as previously described with some modifications. Each strain (10^7 CFU/ml) was added to sterile 96-well plates (Nunclon™), then covered by a TSP pin lid (NUNC™, Roskilde, Denmark), and further incubated at 37 °C for 24 h. […] Additionally, the effect of TOB (2–836 μM or 1–391 μg/ml) against P. aeruginosa biofilm was also investigated. Then the plates were statically incubated at 37 °C for 24 h. A well free of antimicrobial agent was used as a control. After 24 h, bacterial survival was determined using the plate count technique on NA (Himedia®). The percentage killing of each antimicrobial agent was calculated using the formula [1 − (CFU sample/CFU control)] × 100% [15, 19]. […] Each experiment was performed independently three times in duplicate.
# K. pneumoniae biofilm [10] = assay: microbe, parasite or virus in culture
# Protocol: as §5
# P. aeruginosa biofilm [11] = assay: microbe, parasite or virus in culture
# Protocol: as §5
# P. aeruginosa biofilm [12] = assay: Checkerboard synergy of D-LL-31 with antibiotics on biofilm; assay type: cell-based, Pseudomonas aeruginosa
# Protocol: as §3
# P. aeruginosa [13] = assay: Disc antimicrobial susceptibility test (BD BBL Sensi-Disc); assay type: cell-based, Pseudomonas aeruginosa; set-up: key: Susceptible; Intermediate; Resistant; details: 24 h
# Protocol: as §1, §2
# P. aeruginosa ATCC27853 = assay: as above; assay type: cell-based, Pseudomonas aeruginosa; set-up: key: Susceptible; Intermediate; Resistant; details: 24 h
# Protocol: as §1, §2
# P. aeruginosa [14] = assay: Broth microdilution MIC/MBC of conventional antibiotics, planktonic form; assay type: cell-based, Pseudomonas aeruginosa; details: for MBC: broth microdilution then plate count on MHA, planktonic
# Protocol: as §4
# [15] = system: reference strain P. aeruginosa ATCC 27853; assay: Killing of planktonic bacteria (CFU count); assay type: cell-based, Pseudomonas aeruginosa
# Protocol: (§6) A bacterial suspension without peptide served as a control. The samples were then serially diluted and cultivated on NA (Himedia®) and incubated for 24 h to allow colony counting. The percentage killing by each AMP was calculated using the formula [1 − (CFU sample/CFU control)] × 100% [15, 36]. Each experiment was performed independently three times in duplicate.
# [16] = system: clinical isolate P. aeruginosa; assay: Killing of planktonic bacteria (CFU count); assay type: cell-based, Pseudomonas aeruginosa; details: 1–2 h
# Protocol: as §6
# [17] = highest concentration of AMX (68418 μM or 25000 μg/ml), 24 h biofilm, 24 h
# [18] = Pseudomonas aeruginosa, 24 h, read-out: IC50 value
compound,measurement,setting,value
"CC1(C)S[C@@H]2[C@H](NC(=O)[C@H](N)c3ccccc3)C(=O)N2[C@H]1C(=O)O [AMP, Ampicillin]",antimicrobial susceptibility,K. pneumoniae [1],R
same,antimicrobial susceptibility,S. epidermidis [2],R
"CC1(C)S[C@@H]2[C@H](NC(=O)[C@H](N)c3ccc(O)cc3)C(=O)N2[C@H]1C(=O)O [AMX, amoxicillin]",IC50,K. pneumoniae biofilm [3]; 24 h,495 µM
same,IC50,K. pneumoniae biofilm [3],181 µg/mL
same,MIC,S. epidermidis [4],1562.5 µg/mL
same,MIC,"S. epidermidis [4]; Staphylococcus epidermidis, read-out: MIC",4.28 mM
same,IC50,S. epidermidis biofilm [5]; 24 h,2070 µM
same,IC50,S. epidermidis biofilm [5],756 µg/mL
same,effect on biofilm biomass,[6],significant effect
same,susceptibility in words,[7],Resistance
same,MBC,"K. pneumoniae [8]; Klebsiella pneumoniae, read-out: MBC",8.55 mM
same,MIC,"K. pneumoniae [8]; Klebsiella pneumoniae, three independent experiments in triplicate, read-out: MIC",4.28 mM
same,MBC,K. pneumoniae [8],3125 µg/mL
same,MIC,K. pneumoniae [8],1562.5 µg/mL
same,IC50,"S. epidermidis biofilm [9]; Staphylococcus epidermidis, 24 h, read-out: IC50 value",33.1 mM and 12100 µg/mL
same,IC50 of AMX higher than that of D-LL-31,S. epidermidis biofilm [9]; biofilm,~66000 fold
same,killing activity,S. epidermidis biofilm [9]; [17],75%
same,IC50,"K. pneumoniae biofilm [10]; Klebsiella pneumoniae, 24 h, read-out: IC50 value",7.92 mM and 2900 µg/mL
same,IC50 of AMX higher than that of D-LL-31,K. pneumoniae biofilm [10]; biofilm,~13000 fold
same,killing activity,K. pneumoniae biofilm [10]; [17],90%
same,IC50,P. aeruginosa biofilm [11]; [18],45.2 mM and 16500 µg/mL
same,IC50 of AMX higher than that of D-LL-31,P. aeruginosa biofilm [11]; biofilm,about 11000 fold
same,killing activity,P. aeruginosa biofilm [11]; [17],70%
same,IC50,"P. aeruginosa biofilm [12]; Pseudomonas aeruginosa, 24 h; read-out: Antimicrobial agent in concentration of combination",2820 µM
same,IC50,P. aeruginosa biofilm [12]; Pseudomonas aeruginosa; read-out: Antimicrobial agent in concentration of combination,1030 µg/mL
"O=C(N[C@H](CO)[C@H](O)c1ccc([N+](=O)[O-])cc1)C(Cl)Cl [CHL, Chloramphenicol]",antimicrobial susceptibility,P. aeruginosa [13],R
same,antimicrobial susceptibility,P. aeruginosa ATCC27853,S
same,antimicrobial susceptibility,K. pneumoniae [1],S
same,antimicrobial susceptibility,S. epidermidis [2],S
"CO/N=C(\C(=O)N[C@@H]1C(=O)N2C(C(=O)O)=C(CSc3nc(=O)c(=O)[nH]n3C)CS[C@H]12)c1csc(N)n1 [CRO, Ceftriaxone]",antimicrobial susceptibility,P. aeruginosa [13],R
same,antimicrobial susceptibility,P. aeruginosa ATCC27853,S
same,antimicrobial susceptibility,K. pneumoniae [1],S
same,antimicrobial susceptibility,S. epidermidis [2],S
"CC[C@H]1OC(=O)[C@H](C)[C@@H](O[C@H]2C[C@@](C)(OC)[C@@H](O)[C@H](C)O2)[C@H](C)[C@@H](O[C@@H]2O[C@H](C)C[C@H](N(C)C)[C@H]2O)[C@](C)(O)C[C@@H](C)C(=O)[C@H](C)[C@@H](O)[C@]1(C)O [ERY, Erythromycin]",antimicrobial susceptibility,S. epidermidis [2],R
"CNC(C)C1CCC(N)C(OC2C(N)CC(N)C(OC3OCC(C)(O)C(NC)C3O)C2O)O1 (centres unmarked) [GEN, Gentamicin]",antimicrobial susceptibility,P. aeruginosa [13],I
same,antimicrobial susceptibility,P. aeruginosa ATCC27853,S
same,antimicrobial susceptibility,K. pneumoniae [1],I
same,antimicrobial susceptibility,S. epidermidis [2],S
"NC[C@H]1O[C@H](O[C@H]2[C@H](O)[C@@H](O[C@H]3O[C@H](CO)[C@@H](O)[C@H](N)[C@H]3O)[C@H](N)C[C@@H]2N)[C@H](O)[C@@H](O)[C@@H]1O [KAN, Kanamycin]",antimicrobial susceptibility,K. pneumoniae [1],S
same,antimicrobial susceptibility,S. epidermidis [2],S
"Cc1onc(-c2ccccc2)c1C(=O)N[C@@H]1C(=O)N2[C@@H]1SC(C)(C)[C@@H]2C(=O)O [OXA, Oxacillin]",antimicrobial susceptibility,S. epidermidis [2],S
"CN(C)[C@@H]1C(O)=C(C(N)=O)C(=O)[C@@]2(O)C(O)=C3C(=O)c4c(O)cccc4[C@@](C)(O)[C@H]3C[C@@H]12 [TET, Tetracycline]",antimicrobial susceptibility,P. aeruginosa [13],R
same,antimicrobial susceptibility,P. aeruginosa ATCC27853,S
same,antimicrobial susceptibility,K. pneumoniae [1],I
same,antimicrobial susceptibility,S. epidermidis [2],S
"NC[C@H]1O[C@H](O[C@H]2[C@H](O)[C@@H](O[C@H]3O[C@H](CO)[C@@H](O)[C@H](N)[C@H]3O)[C@H](N)C[C@@H]2N)[C@H](N)C[C@@H]1O [TOB, tobramycin]",MBC,"P. aeruginosa [14]; Pseudomonas aeruginosa, read-out: MBC",0.001 mM
same,MBC,P. aeruginosa [14],0.4 µg/mL
same,susceptibility in words,P. aeruginosa [14]; planktonic form,susceptible
same,antimicrobial susceptibility,P. aeruginosa [13],S
same,antimicrobial susceptibility,P. aeruginosa ATCC27853,S
same,antimicrobial susceptibility,K. pneumoniae [1],S
same,killing effect,"[15]; 1 μM, 1 h",≥ 98%
same,"killing of bacterial cells, in words","[15]; 5 and 10 μM, within 1 h",killed all bacterial cells
same,killing effect,[16]; 1 and 5 μM,≥ 92%
same,concentration required to kill all bacterial cells,[16]; planktonic,10 µM
same,"sensitivity of biofilm, in words","P. aeruginosa biofilm [11]; 24 h biofilm, 24 h",sensitive
same,IC50,P. aeruginosa biofilm [11]; [18],4 µM and 2 µg/mL
same,antimicrobial susceptibility,S. epidermidis [2],S
same,Fold decrease of IC50 values,P. aeruginosa biofilm [12]; D-LL-31 combined with TOB; IC50 alone compared with concentration of combination,16 fold
same,IC50,"P. aeruginosa biofilm [12]; Pseudomonas aeruginosa, 24 h, read-out: Antimicrobial agent in concentration of combination",0.2 µM
same,IC50,"P. aeruginosa biofilm [12]; Pseudomonas aeruginosa, read-out: Antimicrobial agent in concentration of combination",0.1 µg/mL
LLGDFFRKSKEKIGKEFKRIVQRIKDFLRNL [LL-31],IC50,"S. epidermidis biofilm [9]; biofilm, 24 h",1.8 µM
same,IC50,"K. pneumoniae biofilm [10]; biofilm, 24 h",0.7 µM
same,IC50,"P. aeruginosa biofilm [11]; biofilm, 24 h",5.3 µM
Penicillin,antimicrobial susceptibility,S. epidermidis [2],S
